Columns and labels:
Experiment in all cases: relative viability (nuclei count vs DMSO), 5 days (fraction); higher = more cells survive
NCI-H661 = test system: NCI-H661
In short: (§1)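 Lung cancer cell lines in 1536-well plates were dosed by pin tool the day after seeding, either with one drug alone or with a fixed anchor-drug dose plus five library-drug doses (not always all listed) in √10 steps. After 5 days, cells were fixed and their nuclei stained in one step (final 0.05% Triton X-100, 1% formaldehyde, 1 ug/ml Hoechst), then counted on 4× images. Relative viability is the nuclei count in treated wells divided by that in vehicle wells. Values are medians of duplicate plates.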

BEN = test system: BEN
In short: as §1

HCC-78 = test system: HCC-78
In short: as §1

SK-MES-1 = test system: SK-MES-1
In short: as §1

NCI-H1734 = test system: NCI-H1734
In short: as §1

A-427 = test system: A-427
In short: as §1

NCI-H3122 = test system: NCI-H3122
In short: as §1

NCI-H650 = test system: NCI-H650
In short: as §1

NCI-H1395 = test system: NCI-H1395
In short: as §1

HOP-62 = test system: HOP-62
In short: as §1

LC-2-ad = test system: LC-2-ad
In short: as §1

NCI-H2087 = test system: NCI-H2087
In short: as §1

NCI-H2023 = test system: NCI-H2023
In short: as §1

LOU-NH91 = test system: LOU-NH91
In short: as §1

COR-L 105 = test system: COR-L 105
In short: as §1

LXF-289 = test system: LXF-289
In short: as §1

EKVX = test system: EKVX
In short: as §1

NCI-H596 = test system: NCI-H596
In short: as §1

HARA = test system: HARA
In short: as §1

NCI-H358 = test system: NCI-H358
In short: as §1

HCC-44 = test system: HCC-44
In short: as §1

For `COCC1(CO)C(=O)C2CCN1CC2` (centres undefined) [PRIMA-1MET] + Cc1nc(NC(=O)N2CCC[C@H]2C(N)=O)sc1-c1ccnc(C(C)(C)C(F)(F)F)c1 [Alpelisib] (partner 2 µM), the relative viability (NCI-H661; first compound 0.2 µM) was 0.617, the relative viability (NCI-H661; first compound 0.6325 µM) was 0.581 and the relative viability (NCI-H661; first compound 6.325 µM) was 0.602. It also gave a relative viability (NCI-H661; first compound 20 µM) of 0.297, a relative viability (BEN; first compound 0.2 µM) of 1.26 and a relative viability (BEN; first compound 0.6325 µM) of 0.833. The relative viability (BEN; first compound 6.325 µM) was 0.909, the relative viability (BEN; first compound 20 µM) was 0.994 and the relative viability (HCC-78; first compound 0.2 µM) was 0.364. For the same compound, the relative viability (HCC-78; first compound 0.6325 µM) was 0.26, the relative viability (HCC-78; first compound 6.325 µM) was 0.335 and the relative viability (HCC-78; first compound 20 µM) was 0.0523. The relative viability (SK-MES-1; first compound 0.2 µM) was 0.885, the relative viability (SK-MES-1; first compound 0.6325 µM) was 1.02 and the relative viability (SK-MES-1; first compound 2 µM) was 0.747. The relative viability (SK-MES-1; first compound 6.325 µM) was 0.823, the relative viability (SK-MES-1; first compound 20 µM) was 0.822 and the relative viability (NCI-H1734; first compound 0.2 µM) was 0.876. For the same compound, the relative viability (NCI-H1734; first compound 0.6325 µM) was 0.658, the relative viability (NCI-H1734; first compound 2 µM) was 0.679 and the relative viability (NCI-H1734; first compound 6.325 µM) was 0.73. It also gave a relative viability (NCI-H1734; first compound 20 µM) of 0.3, a relative viability (A-427; first compound 0.2 µM) of 1.04 and a relative viability (A-427; first compound 0.6325 µM) of 1.05. It also gave a relative viability (A-427; first compound 2 µM) of 0.9, a relative viability (A-427; first compound 6.325 µM) of 1.04 and a relative viability (A-427; first compound 20 µM) of 1.07. For the same compound, the relative viability (NCI-H3122; first compound 0.2 µM) was 0.696, the relative viability (NCI-H3122; first compound 0.6325 µM) was 0.683 and the relative viability (NCI-H3122; first compound 2 µM) was 0.844. The relative viability (NCI-H3122; first compound 6.325 µM) was 0.628, the relative viability (NCI-H3122; first compound 20 µM) was 0.684 and the relative viability (NCI-H650; first compound 0.2 µM) was 1.38. The relative viability (NCI-H650; first compound 2 µM) was 1.08, the relative viability (NCI-H650; first compound 6.325 µM) was 1.02 and the relative viability (NCI-H650; first compound 20 µM) was 0.099. The relative viability (NCI-H1395; first compound 0.2 µM) was 1.13, the relative viability (NCI-H1395; first compound 0.6325 µM) was 0.737 and the relative viability (NCI-H1395; first compound 2 µM) was 0.977. It also gave a relative viability (NCI-H1395; first compound 6.325 µM) of 0.993, a relative viability (NCI-H1395; first compound 20 µM) of 0.635 and a relative viability (HOP-62; first compound 0.2 µM) of 1.13. For the same compound, the relative viability (HOP-62; first compound 0.6325 µM) was 0.986, the relative viability (HOP-62; first compound 2 µM) was 0.732 and the relative viability (HOP-62; first compound 6.325 µM) was 1.18. For the same compound, the relative viability (HOP-62; first compound 20 µM) was 0.487, the relative viability (LC-2-ad; first compound 0.2 µM) was 0.909 and the relative viability (LC-2-ad; first compound 0.6325 µM) was 0.931. The relative viability (LC-2-ad; first compound 2 µM) was 1.01, the relative viability (LC-2-ad; first compound 6.325 µM) was 0.909 and the relative viability (LC-2-ad; first compound 20 µM) was 0.695. The relative viability (NCI-H2087; first compound 0.2 µM) was 1.23, the relative viability (NCI-H2087; first compound 0.6325 µM) was 0.775 and the relative viability (NCI-H2087; first compound 2 µM) was 1.18. The relative viability (NCI-H2087; first compound 6.325 µM) was 1.28, the relative viability (NCI-H2087; first compound 20 µM) was 0.901 and the relative viability (NCI-H2023; first compound 0.2 µM) was 0.7. For the same compound, the relative viability (NCI-H2023; first compound 0.6325 µM) was 0.69, the relative viability (NCI-H2023; first compound 2 µM) was 0.564 and the relative viability (NCI-H2023; first compound 6.325 µM) was 0.615. For the same compound, the relative viability (NCI-H2023; first compound 20 µM) was 0.568, the relative viability (LOU-NH91; first compound 0.2 µM) was 0.78 and the relative viability (LOU-NH91; first compound 0.6325 µM) was 0.652. The relative viability (LOU-NH91; first compound 2 µM) was 0.569, the relative viability (LOU-NH91; first compound 6.325 µM) was 0.669 and the relative viability (LOU-NH91; first compound 20 µM) was 0.507. The relative viability (COR-L 105; first compound 0.2 µM) was 1.11, the relative viability (COR-L 105; first compound 0.6325 µM) was 0.997 and the relative viability (COR-L 105; first compound 2 µM) was 1.14. The relative viability (COR-L 105; first compound 6.325 µM) was 0.852, the relative viability (COR-L 105; first compound 20 µM) was 0.176 and the relative viability (LXF-289; first compound 0.2 µM) was 1.13. For the same compound, the relative viability (LXF-289; first compound 0.6325 µM) was 0.973, the relative viability (LXF-289; first compound 2 µM) was 1.08 and the relative viability (LXF-289; first compound 6.325 µM) was 1.04. The relative viability (LXF-289; first compound 20 µM) was 0.939, the relative viability (EKVX; first compound 0.2 µM) was 0.978 and the relative viability (EKVX; first compound 0.6325 µM) was 0.966. The relative viability (EKVX; first compound 2 µM) was 0.638, the relative viability (EKVX; first compound 6.325 µM) was 0.911 and the relative viability (EKVX; first compound 20 µM) was 0.778. It also gave a relative viability (NCI-H596; first compound 0.2 µM) of 0.539, a relative viability (NCI-H596; first compound 0.6325 µM) of 0.446 and a relative viability (NCI-H596; first compound 2 µM) of 0.586. The relative viability (NCI-H596; first compound 6.325 µM) was 0.673, the relative viability (NCI-H596; first compound 20 µM) was 0.469 and the relative viability (HARA; first compound 0.2 µM) was 0.97. The relative viability (HARA; first compound 0.6325 µM) was 0.603, the relative viability (HARA; first compound 6.325 µM) was 0.836 and the relative viability (HARA; first compound 20 µM) was 0.954. For the same compound, the relative viability (NCI-H358; first compound 0.2 µM) was 1.17, the relative viability (NCI-H358; first compound 0.6325 µM) was 0.781 and the relative viability (NCI-H358; first compound 6.325 µM) was 0.908. The relative viability (NCI-H358; first compound 20 µM) was 0.0962, the relative viability (HCC-44; first compound 0.2 µM) was 0.87 and the relative viability (HCC-44; first compound 0.6325 µM) was 0.647. It also gave a relative viability (HCC-44; first compound 2 µM) of 0.673, a relative viability (HCC-44; first compound 6.325 µM) of 0.801 and a relative viability (HCC-44; first compound 20 µM) of 0.737.

— the supplement of paper PMC10307832
